Assays:
Type in all cases: in vivo
[1] = tested on: calamondin (Citrus madurensis); assay: Leaf drop of calamondin after canopy spray with agonists alone or in combination with Ethrel; settings: 7 days after application
Description: (§1) A solution of an α2-adrenergic agonist was prepared. The solution contained 0.25 to 2 mM of agonist dissolved in water containing an appropriate surfactant. Ethrel® (2-chloroethyl phosphonic acid), an abscission agent, was added at a concentration that causes fruit loosening (in the case of citrus, 100 to 400 mg/L, depending on the variety). The solution was sprayed onto a tree canopy until “run-off,” typically about 2.5 liters per 15 foot tree. […] Under field conditions the canopies were not sprayed with the agonist-containing solutions if rainfall was anticipated within 24 hours. A positive control, containing a suitable concentration of Ethrel® or other abscission agent, as well as an agonist and surfactant control were sprayed on separate canopies. After several days, usually 3 to 10, differences in leaf drop were measured by counting or weighing dropped leaves. Fruit detachment force (FDF, a measurement defined as the force required to remove fruit from the tree stem) was measured in all treatments.
(§2) Kinetic® was used as a surfactant. Leaf drop data are leaf loss means of 3 branches times 10 trees, 7 days after application. FDF data are means of 5 fruit times 10 trees, 5 days after application.

[2] = tested on: calamondin (Citrus madurensis); assay: Fruit detachment force (FDF) of calamondin after canopy spray with agonists alone or in combination with Ethrel; settings: 5 days after application
Description: as §1, §2

[3] = tested on: Valencia orange (Citrus sinensis); assay: Leaf drop of Valencia orange, clonidine alone or in combination with Ethrel; settings: 7 days after application
Description: as §1
Kinetic® was used as a surfactant. Data are the leaf loss means of 3 branches times 5 trees, 7 days after application.

Valencia orange = assay: Leaf drop of Valencia orange, Ethrel, coronatine, coronatine+guanfacine; settings: 10 days after application
Description: The effect of Ethrel, coronatine, coronatine+guanfacine, and adjuvant alone on % cumulative leaf drop in Valencia orange was tested. The data reported in Table 3 are means of 3 branches times 5 trees, 10 days after application.

[4] = agonist 1 mM + Ethrel 400 mg/L, Kinetic surfactant
[5] = agonist 1 mM alone, Kinetic surfactant
[6] = Ethrel 400 mg/L alone (positive control)
[7] = agonist 0.5 mM + Ethrel 400 mg/L, Kinetic surfactant
[8] = agonist 0.5 mM alone, Kinetic surfactant

Clc1cccc(Cl)c1N=C1NCCN1 [Clonidine, clonidine]
% Cumulative Leaf Drop [1, 4]: 13.4%
% Cumulative Leaf Drop [1, 5]: 5.8%
% Reduction in FDF [2, 4]: 40.5%
% Reduction in FDF [2, 5]: 0.5%
% Cumulative Leaf Drop ([3]; 1 mM clonidine + Ethrel 100 mg/L): 6.1%
% Cumulative Leaf Drop ([3]; 1 mM clonidine + Ethrel 200 mg/L): 14.3%
% Cumulative Leaf Drop ([3]; 1 mM clonidine alone): 2.7%
% Cumulative Leaf Drop ([3]; 2 mM clonidine + Ethrel 100 mg/L): 7.0%
% Cumulative Leaf Drop ([3]; 2 mM clonidine + Ethrel 200 mg/L): 15.1%
% Cumulative Leaf Drop ([3]; 2 mM clonidine alone): 3.2%

O=P(O)(O)CCCl [Ethrel ®, 2-chloroethyl phosphonic acid]
% Cumulative Leaf Drop [1, 6]: 68.3%
% Reduction in FDF [2, 6]: 41.6%
% Cumulative Leaf Drop ([3]; Ethrel 100 mg/L alone): 19.1%
% Cumulative Leaf Drop ([3]; Ethrel 200 mg/L alone): 43.8%
% Cumulative Leaf Drop (Valencia orange; Ethrel 200 mg/L alone): 49.23%

N=C(N)N/N=C/c1c(Cl)cccc1Cl [Guanabenz, guanabenz]
% Cumulative Leaf Drop [1, 4]: 14.1%
% Cumulative Leaf Drop [1, 5]: 5.9%
% Reduction in FDF [2, 4]: 34.6%
% Reduction in FDF [2, 5]: 1.0%

N=C(N)NC(=O)Cc1c(Cl)cccc1Cl [Guanafacine, guanfacine]
% Cumulative Leaf Drop [1, 4]: 4.8%
% Cumulative Leaf Drop [1, 5]: 6.5%
% Reduction in FDF [2, 4]: 34.8%
% Reduction in FDF [2, 5]: 1.0%
% Cumulative Leaf Drop (Valencia orange; 2 mM guanfacine + coronatine 200 mg/L): 3.07%

Brc1c(NC2=NCCN2)ccc2nccnc12 [UK14,304, Brimonidine]
% Cumulative Leaf Drop [1, 7]: 15.6%
% Cumulative Leaf Drop [1, 8]: 6.0%
% Reduction in FDF [2, 7]: 33.4%
% Reduction in FDF [2, 8]: 1.2%

CC[C@H]1C=C(C(=O)N[C@@]2(C(=O)O)C[C@@H]2CC)[C@H]2CCC(=O)[C@H]2C1 [coronatine]
% Cumulative Leaf Drop (Valencia orange; coronatine 200 mg/L alone): 12.56%
